Data from ChEMBL document CHEMBL5465560, “Selectivity Literature for EUbOPEN Chemogenomic Library” (2024).

Experiments:
[1] = biological target: Casein kinase II subunit alpha' (Homo sapiens) (UniProt P19784); assay: Selectivity interaction (Kinase panel (KiNativ target engagement assay in Jurkat cells)) EUB0001635a CSNK2A2; format: cell-based; conditions: Selectivity number of off-targets 0.0, Selectivity number of targets 233.0, Source Knowledge https://www.sciencedirect.com/science/article/pii/S2451945619300674?via%3Dihub, at 1 µM
[2] = biological target: Mitogen-activated protein kinase kinase kinase kinase 5 (Homo sapiens) (UniProt Q9Y4K4); assay: Selectivity interaction (Kinase panel (KiNativ target engagement assay in Jurkat cells)) EUB0001635a MAP4K5; format: cell-based; conditions: Selectivity number of off-targets 0.0, Selectivity number of targets 233.0, Source Knowledge https://www.sciencedirect.com/science/article/pii/S2451945619300674?via%3Dihub, at 1 µM
[3] = biological target: T1, Inhibitor of nuclear factor kappa-B kinase subunit epsilon (Homo sapiens) (UniProt Q14164); assay: Selectivity interaction (KinomeScan (DiscoverX)) EUB0000229b IKBKE; conditions: at 10 µM
T1 sequence (whole entry): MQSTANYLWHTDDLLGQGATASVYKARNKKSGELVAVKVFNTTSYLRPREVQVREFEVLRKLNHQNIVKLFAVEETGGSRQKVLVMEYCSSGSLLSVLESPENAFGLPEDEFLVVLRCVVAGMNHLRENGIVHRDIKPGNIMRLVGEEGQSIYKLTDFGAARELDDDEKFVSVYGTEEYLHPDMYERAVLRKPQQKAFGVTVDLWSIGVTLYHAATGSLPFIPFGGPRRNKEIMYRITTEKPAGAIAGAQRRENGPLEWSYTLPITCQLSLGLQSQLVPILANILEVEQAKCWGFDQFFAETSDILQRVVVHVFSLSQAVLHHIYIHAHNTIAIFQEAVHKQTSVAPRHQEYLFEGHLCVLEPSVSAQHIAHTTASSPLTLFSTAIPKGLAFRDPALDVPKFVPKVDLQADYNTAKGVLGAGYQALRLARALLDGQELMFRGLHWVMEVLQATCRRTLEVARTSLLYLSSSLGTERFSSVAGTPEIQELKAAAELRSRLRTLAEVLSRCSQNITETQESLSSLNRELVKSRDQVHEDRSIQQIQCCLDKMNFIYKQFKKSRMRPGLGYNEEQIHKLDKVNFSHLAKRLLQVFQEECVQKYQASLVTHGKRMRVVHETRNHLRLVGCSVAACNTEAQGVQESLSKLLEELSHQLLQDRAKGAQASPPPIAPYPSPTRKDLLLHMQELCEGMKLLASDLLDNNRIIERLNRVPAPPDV

[4] = biological target: Protein arginine N-methyltransferase 8 (Homo sapiens, UniProt Q9NR22); conditions: at 10 µM
[5] = biological target: T2, Serine/threonine-protein kinase tousled-like 1 (Homo sapiens) (UniProt Q9UKI8); assay: Selectivity interaction (KinomeScan (DiscoverX)) EUB0000695a TLK1; conditions: at 100 nM
T2 sequence (whole entry): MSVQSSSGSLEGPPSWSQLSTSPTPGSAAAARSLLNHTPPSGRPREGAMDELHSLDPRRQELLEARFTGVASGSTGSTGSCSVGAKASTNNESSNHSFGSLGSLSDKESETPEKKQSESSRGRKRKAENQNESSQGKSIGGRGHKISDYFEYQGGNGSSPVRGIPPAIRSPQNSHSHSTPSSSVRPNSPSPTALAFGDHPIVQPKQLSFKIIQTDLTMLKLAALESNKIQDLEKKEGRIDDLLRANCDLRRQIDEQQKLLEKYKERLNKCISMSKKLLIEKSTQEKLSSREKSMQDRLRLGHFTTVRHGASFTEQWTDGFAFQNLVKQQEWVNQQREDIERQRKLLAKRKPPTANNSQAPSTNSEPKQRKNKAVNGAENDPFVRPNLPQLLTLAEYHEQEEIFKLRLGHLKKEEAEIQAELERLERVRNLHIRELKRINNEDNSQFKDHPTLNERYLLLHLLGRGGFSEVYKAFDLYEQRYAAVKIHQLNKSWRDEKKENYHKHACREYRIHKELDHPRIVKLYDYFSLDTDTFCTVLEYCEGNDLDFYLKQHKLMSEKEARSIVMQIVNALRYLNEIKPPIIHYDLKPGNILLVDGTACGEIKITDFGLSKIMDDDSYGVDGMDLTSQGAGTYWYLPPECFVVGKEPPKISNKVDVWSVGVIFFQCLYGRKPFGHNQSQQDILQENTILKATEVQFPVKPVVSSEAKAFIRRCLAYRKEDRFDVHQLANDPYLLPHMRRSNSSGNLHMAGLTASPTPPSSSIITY

[6] = biological target: Phosphatidylinositol 4-kinase beta (Homo sapiens, UniProt Q9UBF8); assay: Selectivity interaction (KinomeScan (DiscoverX)) EUB0000695a PI4KB; conditions: at 100 nM
[7] = biological target: Activin receptor type-2B (Homo sapiens) (UniProt Q13705); assay: Selectivity interaction (KinomeScan (DiscoverX)) EUB0000666a ACVR2B; conditions: at 10 µM
Sequence of Activin receptor type-2B (Homo sapiens) (Q13705 whole entry): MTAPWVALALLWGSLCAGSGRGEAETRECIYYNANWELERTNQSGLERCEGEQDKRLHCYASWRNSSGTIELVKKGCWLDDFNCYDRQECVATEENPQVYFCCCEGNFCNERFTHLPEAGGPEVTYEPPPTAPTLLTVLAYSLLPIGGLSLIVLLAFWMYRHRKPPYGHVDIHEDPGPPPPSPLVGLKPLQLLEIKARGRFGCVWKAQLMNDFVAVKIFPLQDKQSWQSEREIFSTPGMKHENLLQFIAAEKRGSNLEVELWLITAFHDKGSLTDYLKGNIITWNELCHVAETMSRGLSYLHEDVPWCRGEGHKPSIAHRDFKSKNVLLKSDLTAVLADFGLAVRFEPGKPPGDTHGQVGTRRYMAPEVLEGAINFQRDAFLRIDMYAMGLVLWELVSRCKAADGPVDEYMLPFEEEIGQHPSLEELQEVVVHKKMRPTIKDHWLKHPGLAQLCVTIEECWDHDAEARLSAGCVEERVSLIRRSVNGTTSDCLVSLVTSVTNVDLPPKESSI

[8] = biological target: Voltage-dependent L-type calcium channel subunit alpha-1C (Homo sapiens, UniProt Q13936); assay: Selectivity interaction (Panel of non-epigenetic targets (kinases, GPCRs, ion channels, and transporters, Eurofins) ) EUB0000271b CACNA1C; conditions: at 1 µM
Sequence of Voltage-dependent L-type calcium channel subunit alpha-1C (Q13936 whole entry): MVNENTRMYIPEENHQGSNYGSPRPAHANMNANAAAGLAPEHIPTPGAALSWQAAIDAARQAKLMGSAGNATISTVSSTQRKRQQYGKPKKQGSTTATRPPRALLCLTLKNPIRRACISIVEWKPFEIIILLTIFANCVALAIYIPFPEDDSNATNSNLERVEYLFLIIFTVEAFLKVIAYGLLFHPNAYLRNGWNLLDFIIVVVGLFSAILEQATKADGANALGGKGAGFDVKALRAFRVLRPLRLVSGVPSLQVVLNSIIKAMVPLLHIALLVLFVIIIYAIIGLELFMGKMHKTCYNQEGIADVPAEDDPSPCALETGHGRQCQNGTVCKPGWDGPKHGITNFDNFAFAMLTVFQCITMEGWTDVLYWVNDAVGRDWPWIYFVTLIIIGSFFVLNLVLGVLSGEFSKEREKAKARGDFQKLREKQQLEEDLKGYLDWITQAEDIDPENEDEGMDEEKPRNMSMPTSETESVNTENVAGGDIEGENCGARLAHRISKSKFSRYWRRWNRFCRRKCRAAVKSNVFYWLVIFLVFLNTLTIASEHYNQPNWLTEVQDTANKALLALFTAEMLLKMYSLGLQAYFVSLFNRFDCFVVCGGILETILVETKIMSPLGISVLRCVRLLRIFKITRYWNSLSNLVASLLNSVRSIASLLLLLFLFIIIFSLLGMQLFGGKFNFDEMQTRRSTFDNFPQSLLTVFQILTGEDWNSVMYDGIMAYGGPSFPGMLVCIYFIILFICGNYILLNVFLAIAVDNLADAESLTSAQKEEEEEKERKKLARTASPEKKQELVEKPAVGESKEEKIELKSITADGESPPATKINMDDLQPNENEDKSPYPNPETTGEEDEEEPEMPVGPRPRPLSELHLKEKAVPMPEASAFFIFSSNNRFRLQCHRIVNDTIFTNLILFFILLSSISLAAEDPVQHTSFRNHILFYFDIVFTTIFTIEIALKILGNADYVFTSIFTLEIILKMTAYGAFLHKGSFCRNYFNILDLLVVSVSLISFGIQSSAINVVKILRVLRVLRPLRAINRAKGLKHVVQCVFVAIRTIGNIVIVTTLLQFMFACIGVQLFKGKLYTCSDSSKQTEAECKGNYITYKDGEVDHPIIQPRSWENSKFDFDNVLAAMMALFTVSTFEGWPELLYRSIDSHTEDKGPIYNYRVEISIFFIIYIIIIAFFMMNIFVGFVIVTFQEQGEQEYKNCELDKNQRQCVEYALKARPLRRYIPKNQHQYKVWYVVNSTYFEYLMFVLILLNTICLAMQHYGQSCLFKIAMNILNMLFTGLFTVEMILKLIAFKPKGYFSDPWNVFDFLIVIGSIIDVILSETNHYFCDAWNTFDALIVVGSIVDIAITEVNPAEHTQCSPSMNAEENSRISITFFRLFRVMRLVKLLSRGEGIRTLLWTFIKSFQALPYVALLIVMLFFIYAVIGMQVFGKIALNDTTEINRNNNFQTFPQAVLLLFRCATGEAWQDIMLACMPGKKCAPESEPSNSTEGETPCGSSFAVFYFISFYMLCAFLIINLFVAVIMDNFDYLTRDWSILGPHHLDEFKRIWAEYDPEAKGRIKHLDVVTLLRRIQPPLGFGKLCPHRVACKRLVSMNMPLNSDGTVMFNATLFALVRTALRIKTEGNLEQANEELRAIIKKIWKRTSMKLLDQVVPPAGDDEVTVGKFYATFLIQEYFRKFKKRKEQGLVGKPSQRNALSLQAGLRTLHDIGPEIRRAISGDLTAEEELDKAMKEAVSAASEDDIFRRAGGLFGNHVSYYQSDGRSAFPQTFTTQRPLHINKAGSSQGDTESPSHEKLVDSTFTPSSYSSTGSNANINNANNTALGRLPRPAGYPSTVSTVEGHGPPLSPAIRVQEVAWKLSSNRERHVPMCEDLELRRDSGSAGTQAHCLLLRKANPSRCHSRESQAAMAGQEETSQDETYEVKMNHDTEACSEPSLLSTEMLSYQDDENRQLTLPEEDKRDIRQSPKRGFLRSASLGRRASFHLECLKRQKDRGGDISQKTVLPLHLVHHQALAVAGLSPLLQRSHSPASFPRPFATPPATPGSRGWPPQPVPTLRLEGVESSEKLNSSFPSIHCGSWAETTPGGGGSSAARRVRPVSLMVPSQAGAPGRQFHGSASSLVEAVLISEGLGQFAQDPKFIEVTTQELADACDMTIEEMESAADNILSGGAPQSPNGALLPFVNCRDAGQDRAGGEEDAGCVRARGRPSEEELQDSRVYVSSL

[9] = biological target: Dual specificity tyrosine-phosphorylation-regulated kinase 1A (Homo sapiens, UniProt Q13627); assay: Selectivity interaction (KinomeScan (DiscoverX)) EUB0001049a DYRK1A; conditions: at 1 µM
[10] = biological target: Myosin light chain kinase, smooth muscle (Homo sapiens, UniProt Q15746); assay: Selectivity interaction (Upstate Kinase Profiler service (Millipore)) EUB0000056c MYLK; conditions: at 1 µM
[11] = biological target: Dual specificity tyrosine-phosphorylation-regulated kinase 1B (Homo sapiens, UniProt Q9Y463); assay: Selectivity interaction (ProQinase) EUB0000171b DYRK1B
Sequence of Dual specificity tyrosine-phosphorylation-regulated kinase 1B (Q9Y463 whole entry, looked up): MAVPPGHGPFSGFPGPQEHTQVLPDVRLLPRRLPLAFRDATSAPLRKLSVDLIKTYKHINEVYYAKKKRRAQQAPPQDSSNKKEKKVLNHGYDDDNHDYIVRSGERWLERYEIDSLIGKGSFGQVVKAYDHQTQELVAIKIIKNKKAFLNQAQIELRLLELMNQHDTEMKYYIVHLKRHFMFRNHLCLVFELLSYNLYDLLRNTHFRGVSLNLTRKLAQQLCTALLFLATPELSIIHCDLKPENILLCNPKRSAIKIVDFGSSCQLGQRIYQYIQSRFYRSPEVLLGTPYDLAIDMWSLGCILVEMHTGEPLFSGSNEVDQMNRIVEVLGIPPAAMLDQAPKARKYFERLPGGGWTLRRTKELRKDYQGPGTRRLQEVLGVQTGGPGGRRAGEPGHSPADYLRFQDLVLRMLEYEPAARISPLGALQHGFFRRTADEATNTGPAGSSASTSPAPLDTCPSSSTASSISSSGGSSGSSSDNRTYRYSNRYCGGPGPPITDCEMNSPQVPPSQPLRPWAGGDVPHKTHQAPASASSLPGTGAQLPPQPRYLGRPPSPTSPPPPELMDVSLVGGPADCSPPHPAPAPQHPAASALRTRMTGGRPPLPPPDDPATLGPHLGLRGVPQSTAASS

[12] = biological target: Serine/threonine-protein kinase RIO2 (Homo sapiens) (UniProt Q9BVS4); assay: Selectivity interaction (KinomeScan (DiscoverX)) EUB0001619a RIOK2; conditions: at 1 µM
[13] = tested on: Epidermal growth factor receptor (Homo sapiens), P00533 [UNDEFINED MUTATION]; assay: Selectivity interaction (KinomeScan (DiscoverX)) EUB0000607a EGFR; conditions: at 10 µM
Sequence of Epidermal growth factor receptor (Homo sapiens), P00533 [UNDEFINED MUTATION] (P00533 whole entry, looked up, change not shown): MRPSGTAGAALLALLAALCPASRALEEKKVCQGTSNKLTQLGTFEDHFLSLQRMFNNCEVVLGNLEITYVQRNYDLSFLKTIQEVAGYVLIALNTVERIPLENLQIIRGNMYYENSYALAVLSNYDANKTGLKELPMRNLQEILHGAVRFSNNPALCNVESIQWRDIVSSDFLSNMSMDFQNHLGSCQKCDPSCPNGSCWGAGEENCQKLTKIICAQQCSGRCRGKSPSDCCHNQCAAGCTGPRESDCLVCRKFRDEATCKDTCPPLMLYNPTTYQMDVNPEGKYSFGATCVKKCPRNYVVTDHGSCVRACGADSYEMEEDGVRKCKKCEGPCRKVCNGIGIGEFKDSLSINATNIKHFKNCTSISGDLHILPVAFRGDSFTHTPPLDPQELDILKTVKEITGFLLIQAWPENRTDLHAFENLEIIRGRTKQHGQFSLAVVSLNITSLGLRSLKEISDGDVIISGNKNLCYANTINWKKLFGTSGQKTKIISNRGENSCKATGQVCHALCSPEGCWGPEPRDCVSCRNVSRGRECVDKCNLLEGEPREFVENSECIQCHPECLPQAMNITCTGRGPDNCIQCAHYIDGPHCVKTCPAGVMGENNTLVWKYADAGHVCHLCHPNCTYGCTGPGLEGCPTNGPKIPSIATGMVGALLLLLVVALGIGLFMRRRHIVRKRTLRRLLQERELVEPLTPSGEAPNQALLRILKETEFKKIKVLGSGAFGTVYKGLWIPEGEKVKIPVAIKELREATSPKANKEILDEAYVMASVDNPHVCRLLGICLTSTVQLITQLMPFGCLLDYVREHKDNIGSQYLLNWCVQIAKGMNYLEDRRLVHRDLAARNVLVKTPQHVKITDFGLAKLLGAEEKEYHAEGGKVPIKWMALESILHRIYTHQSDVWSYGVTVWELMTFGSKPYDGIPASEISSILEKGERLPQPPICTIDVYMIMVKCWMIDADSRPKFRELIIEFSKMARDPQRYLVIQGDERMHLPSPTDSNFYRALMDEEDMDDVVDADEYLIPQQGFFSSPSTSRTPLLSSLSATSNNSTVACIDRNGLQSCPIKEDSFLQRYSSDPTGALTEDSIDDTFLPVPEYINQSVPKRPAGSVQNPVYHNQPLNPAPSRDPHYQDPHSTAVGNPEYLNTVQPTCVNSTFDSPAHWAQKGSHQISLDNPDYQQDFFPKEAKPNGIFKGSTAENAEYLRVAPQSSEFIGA

[14] = biological target: Casein kinase II subunit alpha (Homo sapiens, UniProt P68400); assay: Selectivity interaction (SelectScreen profiling (Invitrogen)) EUB0000607a CSNK2A1; conditions: at 2 µM
Sequence of Casein kinase II subunit alpha (P68400 whole entry, looked up): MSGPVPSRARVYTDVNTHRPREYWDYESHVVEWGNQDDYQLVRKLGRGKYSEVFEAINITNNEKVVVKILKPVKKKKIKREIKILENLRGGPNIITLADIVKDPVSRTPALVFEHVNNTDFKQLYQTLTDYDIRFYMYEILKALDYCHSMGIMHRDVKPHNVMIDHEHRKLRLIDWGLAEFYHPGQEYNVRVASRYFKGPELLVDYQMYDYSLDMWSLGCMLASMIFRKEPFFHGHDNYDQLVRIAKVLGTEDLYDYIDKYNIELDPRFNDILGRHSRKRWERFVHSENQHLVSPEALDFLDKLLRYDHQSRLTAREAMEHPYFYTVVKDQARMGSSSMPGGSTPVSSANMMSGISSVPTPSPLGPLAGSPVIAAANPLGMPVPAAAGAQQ

[15] = biological target: Protein kinase C eta type (Homo sapiens) (UniProt P24723); conditions: at 10 µM
[16] = biological target: Vascular endothelial growth factor receptor 1 (Homo sapiens) (UniProt P17948); assay: Selectivity interaction (KinomeScan (DiscoverX)) EUB0000092b FLT1; conditions: at 10 µM
[17] = biological target: Phosphatidylinositol 4-phosphate 5-kinase type-1 gamma (Homo sapiens) (UniProt O60331); assay: Selectivity interaction (Ambit KINOMEscan and KiNATiv profiling in Jurkat cells) EUB0000090b PIP5K1C; format: cell-based; conditions: at 1 µM
[18] = biological target: Leukocyte tyrosine kinase receptor (Homo sapiens, UniProt P29376); assay: Selectivity interaction (Ambit KINOMEscan and KiNATiv profiling in Jurkat cells) EUB0000090b LTK; format: cell-based; conditions: at 1 µM

SMILES: C=CC(=O)Nc1ccc(C(=O)Nc2[nH]nc3c2CN(C(=O)N[C@H](CN(C)C)c2ccccc2)C3(C)C)cc1
- % of engagement [1]: -0.9%
- % of engagement [2]: 1.1%

SMILES: COc1cc(N(C)c2ccnc3ccc(C(F)(F)F)cc23)cc(OC)c1OC
- % binding [3]: 84%

SMILES: CNCCN1CCC(c2cc(CN(C)C(=O)c3cccc(Oc4ccccc4)c3)ccn2)CC1
- % activity [4]: 82%

SMILES: Cc1cc(F)c(C(=O)Nc2cccc(-c3nncn3C(C)C)n2)cc1-n1cnc(C2CC2)c1
- % of control [5]: 88%
- % of control [6]: 100%

SMILES: O=C(NOC[C@H](O)CO)c1ccc(F)c(F)c1Nc1ccc(I)cc1F
- % of control [7]: 66%

SMILES: Cc1cc(C)cc([C@@H]2c3cc(C)ccc3NC(=O)CN2C(=O)c2ccc(Br)s2)c1
- % of inhibition [8]: -8%

SMILES: COc1cc(Nc2nc(C)cc(-c3cnn4nc(OC)ccc34)n2)cc(C(F)(F)F)c1
- % of control [9]: 74%

SMILES: Cc1ccc(-c2ccc3c(ccc4sc5c(c43)NC[C@@H](C)NC5=O)n2)cn1
- % of inhibition [10]: 1%

SMILES: C=CC(=O)Nc1cccc(C(=O)Nc2ccc(Nc3cc(-c4[nH]c(SC)nc4C)ccn3)cc2)c1
- % of control ([11]; at 1 µM): 85%
- % of control ([11]; at 5 µM): 53%

SMILES: N#Cc1cccc(-c2c[nH]c3ncnc(N4CCOCC4)c23)c1
- % of control [12]: 75%

SMILES: CNC(=O)Nc1ccc(-c2nc(N3CC4CCC(C3)O4)c3cnn(C4CCC5(CC4)OCCO5)c3n2)cc1
- % of control [13]: 50%
- % of inhibition [14]: 0%

SMILES: CCN(CC)CCCCNc1ncc2cc(-c3cc(OC)cc(OC)c3)c(NC(=O)NC(C)(C)C)nc2n1
- % of control [15]: 100%

SMILES: CCC(=O)N1CCN(c2ccc(-n3c(=O)ccc4cnc5ccc(-c6cnc7ccccc7c6)cc5c43)cc2C(F)(F)F)CC1
- % of control [16]: 79%

SMILES: CN(C)C/C=C/C(=O)Nc1ccc(C(=O)N2CCCC(Nc3ncc(Cl)c(-c4c[nH]c5ccccc45)n3)C2)cc1 (centres undefined)
- % of control [17]: 100%
- % of control [18]: 84%
